Biological target: T1, BRN2 (Homo sapiens, UniProt P20265)
T1 sequence (P20265 1-443): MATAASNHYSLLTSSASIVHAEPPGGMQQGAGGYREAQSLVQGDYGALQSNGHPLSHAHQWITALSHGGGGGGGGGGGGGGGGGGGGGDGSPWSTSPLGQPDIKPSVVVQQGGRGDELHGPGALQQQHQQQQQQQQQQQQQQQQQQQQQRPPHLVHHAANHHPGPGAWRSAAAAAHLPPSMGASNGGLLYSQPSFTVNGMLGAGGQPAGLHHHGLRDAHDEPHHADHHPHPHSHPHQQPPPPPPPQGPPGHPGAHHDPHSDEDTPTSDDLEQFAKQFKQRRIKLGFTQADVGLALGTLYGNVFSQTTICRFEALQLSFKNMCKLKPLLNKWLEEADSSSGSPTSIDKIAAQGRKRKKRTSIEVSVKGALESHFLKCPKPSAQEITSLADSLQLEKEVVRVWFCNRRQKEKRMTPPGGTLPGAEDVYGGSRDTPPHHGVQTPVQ
Experiment: cell-based
Conditions: read-out: % BRN2 Inhibition (10 μM), 10 μM compound, 24 hours, 42D^ENZR cells stably expressing BRN2-luciferase reporter; negative = activation

SMILES	inhibition at 10 µM [%]
Clc1ccc2cc(-c3csc(-c4ccc[nH]4)n3)oc2c1 [VPC-18-94, 4-(6-chlorobenzofuran-2-yl)-2-(1H-pyrrol-2-yl)thiazole]	79.6
FC(F)(F)c1ccc2cc(-c3csc(-c4ccoc4)n3)oc2c1 [VPC-18-104, 2-(furan-3-yl)-4-(6-(trifluoromethyl)benzofuran-2-yl)thiazole]	87.1
Cn1c(-c2ccc(-c3ccccc3)o2)nc2ccccc21 [VPC-18]	97.6

Same assay, conditions: read-out: % BRN2 Inhibition (30 μM), 30 μM compound, 24 hours, 42D^ENZR cells stably expressing BRN2-luciferase reporter; negative = activation

SMILES	inhibition at 30 µM [%]
Clc1ccc2cc(-c3csc(-c4ccc[nH]4)n3)oc2c1 [VPC-18-94, 4-(6-chlorobenzofuran-2-yl)-2-(1H-pyrrol-2-yl)thiazole]	86.9
FC(F)(F)c1ccc2cc(-c3csc(-c4ccoc4)n3)oc2c1 [VPC-18-104, 2-(furan-3-yl)-4-(6-(trifluoromethyl)benzofuran-2-yl)thiazole]	94.2
Cn1c(-c2ccc(-c3ccccc3)o2)nc2ccccc21 [VPC-18]	99.4

Test system: not listed separately
Experiment: Liver microsome metabolic stability, MLM
Assay type: in vitro ADME
Conditions: MLM (single value or second of two), percent remaining at 60 min, 1 μM compound, 0.25 mg/mL protein, 1 mM NADPH
Protocol: Potassium phosphate buffer (Kphos) was prepared by adding 0.647 g potassium phosphate monobasic (KH2PO4) and 3.527 g potassium phosphate dibasic ([…]) to 400 mL of Milli-Q water. pH of the buffer was adjusted to 7.4 and volume was made up to 500 mL.
Microsomes (20 mg/mL) were diluted in KH2PO4 buffer to prepare a concentration of 0.357 mg/mL.
Stock solutions of BRN2 inhibitors were prepared in DMSO at a concentration of 1 mM
A stock solution of 3.33 mM NADPH (3.33×) was prepared by dissolving appropriate amount of NADPH in KH2PO4 buffer.
Total Incubation volume: 100 μL
Compound concentration: 1 μM
Protein Concentration: 0.25 mg/mL
An 1120 μL aliquot of Kphos buffer (50 mM, pH 7.4) containing liver microsomes (0.357 mg/mL) were added to individual 2 mL tubes (final concentration 0.25 mg/mL). Test compounds (1 mM) and positive controls were directly spiked into respective tubes to prepare a concentration of 1.428 μM (final concentration 1 μM). From the above mix, 70 μL was added to individual wells of 96 well reaction plates and pre-incubated in a 37° C. water bath for 5 min. All the reactions were initiated by adding 30 μL of 3.33 mM NADPH (final concentration 1 mM). Reactions without NADPH and buffer controls (minus NADPH) at 0 min and 60 min were also incubated to rule out non-NADPH metabolism or chemical instability in the incubation buffer. All reactions were terminated using 100 μL of ice-cold acetonitrile containing internal standard at 0, 5, 15, 30 and 60 min. The plates were centrifuged at 4000 RPM for 15 min and 100 μL aliquots were submitted for analysis by LC-MS/MS.
Samples were monitored for parent compounds disappearance in MRM mode using LC-MS/MS.
The percent remaining of test compounds and positive control in each sample was determined by considering peak area ratio in the 0 minute sample as 100%. The Half-life of compounds in microsomes is calculated by formula:
Half-life (t½) (min)=0.693/k, where k is gradient of line determined from plot of peak area ratio (compound peak area/internal standard peak area) against time.
In vitro intrinsic clearance (CL'int) (units in mL/min/kg) was calculated using the formula.
[formula] • For liver microsomes, scaling factor used was 45 mg microsomal protein per gm liver. • Indicates liver weight (gm) which varies species wise. For mice the liver weights are 90 gm.
(§1) Where data is not available “na” is inserted.

SMILES	Met Stab % (60 mins HLM/MLM) [%]
Clc1ccc2cc(-c3csc(-c4ccc[nH]4)n3)oc2c1 [VPC-18-94, 4-(6-chlorobenzofuran-2-yl)-2-(1H-pyrrol-2-yl)thiazole]	21
FC(F)(F)c1ccc2cc(-c3csc(-c4ccoc4)n3)oc2c1 [VPC-18-104, 2-(furan-3-yl)-4-(6-(trifluoromethyl)benzofuran-2-yl)thiazole]	1
Clc1ccc2cc(-c3coc(-c4ccc[nH]4)n3)oc2c1 [VPC-18-127, 4-(6-chlorobenzofuran-2-yl)-2-(1H-pyrrol-2-yl)oxazole]	16
Clc1ccc2cc(-c3nccc(-c4ccc[nH]4)n3)oc2c1 [VPC-18-133, 2-(6-chlorobenzofuran-2-yl)-4-(1H-pyrrol-2-yl)pyrimidine]	1
Cn1cccc1-c1nc(-c2cc3ccc(Cl)cc3o2)cs1 [VPC-18-139, 4-(6-chlorobenzofuran-2-yl)-2-(1-methyl-1H-pyrrol-2-yl)thiazole]	23
FC(F)(F)c1ccc2cc(-c3nccc(-c4ccc[nH]4)n3)oc2c1 [VPC-18-140, 4-(1H-pyrrol-2-yl)-2-(6-(trifluoromethyl)benzofuran-2-yl)pyrimidine]	2
Clc1ccc2cc(-c3nccc(-c4ccco4)n3)oc2c1 [VPC-18-141, 2-(6-chlorobenzofuran-2-yl)-4-(furan-2-yl)pyrimidine]	3

Same assay, conditions: mouse, liver microsomes, pH 7.4; MLM (single value or second of two), 1 μM compound, 0.25 mg/mL protein; read-out: T1/2 in (mins HLM/MLM)

SMILES	half-life at 1 µM [min]
Clc1ccc2cc(-c3csc(-c4ccc[nH]4)n3)oc2c1 [VPC-18-94, 4-(6-chlorobenzofuran-2-yl)-2-(1H-pyrrol-2-yl)thiazole]	27
FC(F)(F)c1ccc2cc(-c3csc(-c4ccoc4)n3)oc2c1 [VPC-18-104, 2-(furan-3-yl)-4-(6-(trifluoromethyl)benzofuran-2-yl)thiazole]	10
Clc1ccc2cc(-c3coc(-c4ccc[nH]4)n3)oc2c1 [VPC-18-127, 4-(6-chlorobenzofuran-2-yl)-2-(1H-pyrrol-2-yl)oxazole]	22
Clc1ccc2cc(-c3nccc(-c4ccc[nH]4)n3)oc2c1 [VPC-18-133, 2-(6-chlorobenzofuran-2-yl)-4-(1H-pyrrol-2-yl)pyrimidine]	8
Cn1cccc1-c1nc(-c2cc3ccc(Cl)cc3o2)cs1 [VPC-18-139, 4-(6-chlorobenzofuran-2-yl)-2-(1-methyl-1H-pyrrol-2-yl)thiazole]	30
FC(F)(F)c1ccc2cc(-c3nccc(-c4ccc[nH]4)n3)oc2c1 [VPC-18-140, 4-(1H-pyrrol-2-yl)-2-(6-(trifluoromethyl)benzofuran-2-yl)pyrimidine]	10
Clc1ccc2cc(-c3nccc(-c4ccco4)n3)oc2c1 [VPC-18-141, 2-(6-chlorobenzofuran-2-yl)-4-(furan-2-yl)pyrimidine]	13

Test system: 42D^ENZR cells vs 16D^CRPC cells
Experiment: Cell proliferation specificity, 42D^ENZR cells vs 16D^CRPC cells
Assay type: cell-based
Conditions: 42D cells express BRN2, 16D cells do not; some also LNCaP; result in words
Protocol: Plate 42DENZR (˜7000 cells per well) and 16D^CRPC (˜5000 cells per well) cells in 96 well plate with a volume of 100 μL per well. • 2. Next day 1 mL aliquots of media are combined with 3× the desired concentration of compounds. The aliquots are vortexed and 50 μL of each 3× concentration is added to the 100 μL of media in each well to give the ix desired concentration.
The following are the desired concentrations:
0, 10 nM, 100 nM, 500 nM, 1 μM, 2.5 μM, 5 μM, 10 μM, 15 μM, […], 30 μM. • 3. Approximately 72 hours later, 17 μL of 10% Glutaraldehyde is added to each well and plates are placed on a shaker for 20-30 minutes. • 4. Media is washed off the fixed cells by slow submersion in a container of water. Then the water is removed by tapping the plate upside down. • 5. 75 μL of Crystal Violet™ solution is added into the 96 well plates and placed on a shaker for ˜30 minutes. • 6. Media is washed off the fixed cells by repeated slow submersion in a container of water and the plates are allowed to dry over-night. • 7. Next day, 75 μL of Sorensen Solution is accurately pipetted into each well. The plates placed on a shaker for ˜30 minutes. • 8. Absorbance is measured in the plate at 590 nm.
Compounds that Show Specificity Towards 42D^ENZR Cells Vs 16D^CRPC Cells Progress to Step 4.
as §1

SMILES	specificity
Clc1ccc2cc(-c3csc(-c4ccc[nH]4)n3)oc2c1 [VPC-18-94, 4-(6-chlorobenzofuran-2-yl)-2-(1H-pyrrol-2-yl)thiazole]	VPC-18-94 (specific no effect on LNCaP and 16D)
FC(F)(F)c1ccc2cc(-c3csc(-c4ccoc4)n3)oc2c1 [VPC-18-104, 2-(furan-3-yl)-4-(6-(trifluoromethyl)benzofuran-2-yl)thiazole]	VPC-18- 104 (specific 42D not 16D)
Clc1ccc2cc(-c3coc(-c4ccc[nH]4)n3)oc2c1 [VPC-18-127, 4-(6-chlorobenzofuran-2-yl)-2-(1H-pyrrol-2-yl)oxazole]	VPC-18- 127 (specific)
Clc1ccc2cc(-c3nccc(-c4ccc[nH]4)n3)oc2c1 [VPC-18-133, 2-(6-chlorobenzofuran-2-yl)-4-(1H-pyrrol-2-yl)pyrimidine]	VPC-18- 133 (specific)
Cn1cccc1-c1nc(-c2cc3ccc(Cl)cc3o2)cs1 [VPC-18-139, 4-(6-chlorobenzofuran-2-yl)-2-(1-methyl-1H-pyrrol-2-yl)thiazole]	VPC-18- 139 (specific)
FC(F)(F)c1ccc2cc(-c3nccc(-c4ccc[nH]4)n3)oc2c1 [VPC-18-140, 4-(1H-pyrrol-2-yl)-2-(6-(trifluoromethyl)benzofuran-2-yl)pyrimidine]	VPC-18- 140 (specific)
Clc1ccc2cc(-c3nccc(-c4ccco4)n3)oc2c1 [VPC-18-141, 2-(6-chlorobenzofuran-2-yl)-4-(furan-2-yl)pyrimidine]	VPC-18- 141 (specific)
Cn1c(-c2ccc(-c3ccccc3)o2)nc2ccccc21 [VPC-18]	VPC-18 (42D not 16D)
